Data on 16 compounds can be found in ChEMBL document CHEMBL1154949, “2-Amino-aryl-7-aryl-benzoxazoles as potent, selective and orally available JAK2 inhibitors” (Bioorg Med Chem Lett, 2010).

The nature of data set [1]: Antiproliferative activity against human SET2 cells harboring JAK2 V617F mutant after 72 hrs by […]. The data set is classed as functional. To be noted: SET-2, 72 h.
Data set [2] in a line: Cmax in rat at 2.5 ml/kg, po. The data set is classed as ADME, organism-based. Set-up: dose 2.5 ml/kg, route oral. To be noted: in vivo.
The target of data set [3] is Tyrosine-protein kinase JAK2 (Homo sapiens, UniProt O60674). The data set can be described thus: Inhibition of GST-tagged JAK2 assessed as inhibition of biotinylated JAK3tide peptide phosphorylation after 60 mins by caliper mobility shift assay.
The target of data set [4] is Non-receptor tyrosine-protein kinase TYK2 (Homo sapiens, UniProt P29597). The data set can be described thus: Inhibition of GST-tagged TYK2 assessed as inhibition of biotinylated IRS1 substrate phosphorylation after 60 mins by caliper mobility shift assay.
The nature of data set [5]: Tmax in rat at 2.5 ml/kg, po. The data set is classed as ADME, organism-based. To be noted: in vivo.
The nature of data set [6]: Volume of distribution at steady state in rat at 0.5 ml/kg, iv. It counts as ADME, organism-based. To be noted: in vivo, read-out: Vdss.
Data set [7] can be described thus: Clearance in rat at 0.5 ml/kg, iv. To be noted: in vivo. It counts as ADME, organism-based.
The test system of data set [8] is Rattus norvegicus. The data set can be described thus: Dose normalized AUC in rat at 1 mg/kg, iv. The data set is classed as ADME, organism-based. Set-up: dose 1 mg/kg, route intravenous. The following applies: in vivo.
For data set [9], the system named is Rattus norvegicus. The data set can be described thus: Dose normalized AUC in rat at 1 mg/kg, po. The data set is classed as ADME, organism-based. Set-up: dose 1 mg/kg, route oral. The following applies: in vivo.
The target in data set [10] is T1, Tyrosine-protein kinase JAK3 (Homo sapiens, UniProt P52333).
T1 sequence (P52333 whole entry): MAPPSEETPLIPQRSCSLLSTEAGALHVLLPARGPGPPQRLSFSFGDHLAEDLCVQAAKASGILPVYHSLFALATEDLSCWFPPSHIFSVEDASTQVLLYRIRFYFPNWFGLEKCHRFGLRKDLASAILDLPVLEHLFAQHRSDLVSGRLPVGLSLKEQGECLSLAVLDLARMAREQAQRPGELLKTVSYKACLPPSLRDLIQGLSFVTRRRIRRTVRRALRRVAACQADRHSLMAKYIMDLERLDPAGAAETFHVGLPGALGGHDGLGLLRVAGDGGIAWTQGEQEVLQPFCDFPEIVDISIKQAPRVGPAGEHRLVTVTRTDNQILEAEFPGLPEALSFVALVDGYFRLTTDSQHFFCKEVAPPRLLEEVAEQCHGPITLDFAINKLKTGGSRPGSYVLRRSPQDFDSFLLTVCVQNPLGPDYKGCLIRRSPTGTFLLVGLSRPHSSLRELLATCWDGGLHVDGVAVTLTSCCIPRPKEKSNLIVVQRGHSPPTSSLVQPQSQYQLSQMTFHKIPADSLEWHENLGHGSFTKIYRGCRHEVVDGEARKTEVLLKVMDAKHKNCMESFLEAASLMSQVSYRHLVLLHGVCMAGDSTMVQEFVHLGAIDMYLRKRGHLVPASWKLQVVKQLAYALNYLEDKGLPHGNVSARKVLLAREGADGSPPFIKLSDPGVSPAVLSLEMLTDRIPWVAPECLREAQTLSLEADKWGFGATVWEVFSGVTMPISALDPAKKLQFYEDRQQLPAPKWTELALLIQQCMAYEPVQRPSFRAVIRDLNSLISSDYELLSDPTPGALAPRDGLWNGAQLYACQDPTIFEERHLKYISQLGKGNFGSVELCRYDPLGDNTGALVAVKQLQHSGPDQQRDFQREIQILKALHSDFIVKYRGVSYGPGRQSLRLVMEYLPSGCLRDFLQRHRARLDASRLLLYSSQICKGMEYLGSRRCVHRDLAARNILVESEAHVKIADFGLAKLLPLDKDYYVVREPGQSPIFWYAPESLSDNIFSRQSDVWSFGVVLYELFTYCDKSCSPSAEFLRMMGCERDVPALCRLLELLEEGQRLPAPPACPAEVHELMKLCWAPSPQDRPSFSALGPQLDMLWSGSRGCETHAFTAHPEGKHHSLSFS
Kind of data set: Inhibition of GST-tagged JAK3 assessed as inhibition of biotinylated JAK3tide peptide phosphorylation after 60 mins by caliper mobility shift assay.

Data set [11] can be described thus: Oral bioavailability in rat at 2.5 ml/kg. The following applies: in vivo. It counts as ADME, organism-based.
The target in data set [12] is Tyrosine-protein kinase JAK1 (Homo sapiens, UniProt P23458). The data set can be described thus: Inhibition of GST-tagged JAK1 assessed as inhibition of biotinylated IRS1 substrate phosphorylation after 60 mins by caliper mobility shift assay.
A short description of data set [13]: Terminal half life in rat at 0.5 ml/kg, iv. The data set is classed as ADME, organism-based. The following applies: in vivo.

In general, GI50 refers to the concentration at which growth is held to half of that of the control. A lower GI50 goes with more potent growth inhibition. Broadly, the Cmax is the highest concentration seen after dosing. The IC50 is the concentration that gives 50% inhibition. The Tmax is the time from dosing to the highest level. Usually clearance stands for the rate of elimination divided by the concentration. A high value points to efficient removal. The term AUC denotes the area under the concentration-time curve, a measure of exposure. A low value points to low exposure. In general, half-life refers to the time needed for the level to fall by half in the phase considered.

Sequence of Non-receptor tyrosine-protein kinase TYK2 (P29597 whole entry): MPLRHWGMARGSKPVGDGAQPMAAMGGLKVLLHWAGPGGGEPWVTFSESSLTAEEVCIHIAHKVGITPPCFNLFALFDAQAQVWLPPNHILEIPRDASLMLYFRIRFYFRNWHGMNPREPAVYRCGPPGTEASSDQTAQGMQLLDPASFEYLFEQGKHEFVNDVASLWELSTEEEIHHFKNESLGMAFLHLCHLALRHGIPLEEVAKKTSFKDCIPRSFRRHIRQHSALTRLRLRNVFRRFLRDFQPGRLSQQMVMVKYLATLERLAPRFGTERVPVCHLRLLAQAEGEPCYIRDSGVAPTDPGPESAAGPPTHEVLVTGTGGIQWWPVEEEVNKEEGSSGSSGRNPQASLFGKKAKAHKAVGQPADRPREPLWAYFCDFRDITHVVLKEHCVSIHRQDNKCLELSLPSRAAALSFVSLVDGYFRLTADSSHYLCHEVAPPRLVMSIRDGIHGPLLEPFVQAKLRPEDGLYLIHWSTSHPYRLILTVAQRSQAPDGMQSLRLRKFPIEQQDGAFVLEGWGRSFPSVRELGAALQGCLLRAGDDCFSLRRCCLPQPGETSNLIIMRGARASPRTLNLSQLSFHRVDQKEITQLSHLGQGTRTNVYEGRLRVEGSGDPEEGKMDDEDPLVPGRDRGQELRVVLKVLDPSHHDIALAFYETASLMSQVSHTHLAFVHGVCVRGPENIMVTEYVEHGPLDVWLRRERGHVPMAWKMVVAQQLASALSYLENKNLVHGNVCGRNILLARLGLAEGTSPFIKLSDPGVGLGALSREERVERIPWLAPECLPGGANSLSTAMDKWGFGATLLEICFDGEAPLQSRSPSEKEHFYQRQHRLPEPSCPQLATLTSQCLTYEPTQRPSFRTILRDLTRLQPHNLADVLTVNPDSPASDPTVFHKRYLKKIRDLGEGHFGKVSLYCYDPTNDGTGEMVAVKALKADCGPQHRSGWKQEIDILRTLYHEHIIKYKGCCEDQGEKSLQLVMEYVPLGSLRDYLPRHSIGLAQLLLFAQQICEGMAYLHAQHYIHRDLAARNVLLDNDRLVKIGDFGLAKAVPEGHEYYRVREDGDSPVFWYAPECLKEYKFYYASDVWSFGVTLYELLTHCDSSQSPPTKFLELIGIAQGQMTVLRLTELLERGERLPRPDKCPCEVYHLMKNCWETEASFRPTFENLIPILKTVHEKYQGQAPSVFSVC
Sequence of Tyrosine-protein kinase JAK2 (O60674 whole entry): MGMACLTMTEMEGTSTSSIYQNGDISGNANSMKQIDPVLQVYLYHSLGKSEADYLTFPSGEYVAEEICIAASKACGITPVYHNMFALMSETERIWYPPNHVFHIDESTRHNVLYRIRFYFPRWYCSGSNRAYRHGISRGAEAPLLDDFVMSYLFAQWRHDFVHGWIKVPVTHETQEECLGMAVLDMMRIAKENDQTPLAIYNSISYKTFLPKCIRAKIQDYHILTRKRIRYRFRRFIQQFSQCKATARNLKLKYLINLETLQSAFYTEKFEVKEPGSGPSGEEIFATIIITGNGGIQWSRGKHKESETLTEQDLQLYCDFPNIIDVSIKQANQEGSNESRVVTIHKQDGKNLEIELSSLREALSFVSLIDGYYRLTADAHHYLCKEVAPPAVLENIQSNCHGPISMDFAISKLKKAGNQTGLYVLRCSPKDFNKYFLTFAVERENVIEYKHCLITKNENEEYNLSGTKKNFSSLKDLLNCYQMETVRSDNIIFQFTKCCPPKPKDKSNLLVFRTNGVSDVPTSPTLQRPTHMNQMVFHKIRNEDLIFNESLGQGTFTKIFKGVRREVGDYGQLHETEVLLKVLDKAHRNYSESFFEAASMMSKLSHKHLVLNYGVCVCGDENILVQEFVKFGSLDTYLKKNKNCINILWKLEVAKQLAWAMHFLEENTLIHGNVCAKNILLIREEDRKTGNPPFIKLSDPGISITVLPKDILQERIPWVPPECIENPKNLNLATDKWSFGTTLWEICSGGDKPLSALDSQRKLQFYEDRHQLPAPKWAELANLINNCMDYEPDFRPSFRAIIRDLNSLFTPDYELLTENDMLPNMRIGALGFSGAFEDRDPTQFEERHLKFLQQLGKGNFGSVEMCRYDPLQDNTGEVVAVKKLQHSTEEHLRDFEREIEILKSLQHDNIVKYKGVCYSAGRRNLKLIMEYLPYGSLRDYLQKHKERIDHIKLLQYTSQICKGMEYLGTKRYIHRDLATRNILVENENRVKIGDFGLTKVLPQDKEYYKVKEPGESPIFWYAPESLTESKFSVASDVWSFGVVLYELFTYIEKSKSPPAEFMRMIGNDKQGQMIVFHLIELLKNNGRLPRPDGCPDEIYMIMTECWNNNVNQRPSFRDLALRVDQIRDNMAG
Sequence of Tyrosine-protein kinase JAK1 (P23458 whole entry): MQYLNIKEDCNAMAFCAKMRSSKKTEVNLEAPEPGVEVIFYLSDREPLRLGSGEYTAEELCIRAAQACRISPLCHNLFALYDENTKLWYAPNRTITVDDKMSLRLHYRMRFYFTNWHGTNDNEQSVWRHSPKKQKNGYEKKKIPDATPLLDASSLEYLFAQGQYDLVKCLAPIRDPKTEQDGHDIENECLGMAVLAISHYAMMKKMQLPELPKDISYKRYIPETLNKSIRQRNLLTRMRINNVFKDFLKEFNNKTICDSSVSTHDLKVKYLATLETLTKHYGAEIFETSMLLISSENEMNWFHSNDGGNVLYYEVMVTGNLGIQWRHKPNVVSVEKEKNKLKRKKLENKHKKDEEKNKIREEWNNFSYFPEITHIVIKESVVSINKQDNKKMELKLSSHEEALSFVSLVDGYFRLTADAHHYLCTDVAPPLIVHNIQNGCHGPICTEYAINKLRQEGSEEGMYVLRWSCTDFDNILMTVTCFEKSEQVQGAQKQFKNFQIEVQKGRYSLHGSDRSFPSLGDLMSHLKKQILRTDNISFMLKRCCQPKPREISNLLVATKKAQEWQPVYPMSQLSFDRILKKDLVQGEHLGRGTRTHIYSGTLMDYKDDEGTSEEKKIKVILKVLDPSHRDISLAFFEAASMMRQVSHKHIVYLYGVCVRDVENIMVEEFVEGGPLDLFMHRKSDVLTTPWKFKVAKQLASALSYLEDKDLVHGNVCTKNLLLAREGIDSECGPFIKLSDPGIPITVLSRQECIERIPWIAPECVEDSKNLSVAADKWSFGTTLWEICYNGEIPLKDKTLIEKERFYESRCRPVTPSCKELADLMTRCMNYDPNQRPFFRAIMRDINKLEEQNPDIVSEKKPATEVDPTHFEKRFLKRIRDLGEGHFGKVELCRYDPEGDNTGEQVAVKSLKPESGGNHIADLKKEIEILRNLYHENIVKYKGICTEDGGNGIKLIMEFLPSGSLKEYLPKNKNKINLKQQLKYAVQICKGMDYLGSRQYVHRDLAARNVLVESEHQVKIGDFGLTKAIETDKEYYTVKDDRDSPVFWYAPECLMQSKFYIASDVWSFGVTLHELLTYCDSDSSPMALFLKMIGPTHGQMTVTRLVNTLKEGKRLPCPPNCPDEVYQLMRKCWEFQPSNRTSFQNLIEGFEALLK

In data set [1], `CNC(=O)c1ccc(Nc2nc3cccc(-c4cc(F)c(CN5CCOCC5)c(F)c4)c3o2)cc1C` came in with a concentration for 50% growth inhibition (GI50) of 260 nM. In data set [2], this compound returned a maximum concentration (Cmax) of 242 nM. The concentration for half-maximal inhibition (IC50) in data set [3] is 5 nM; in data set [4], 120 nM; in data set [10] it was 190 nM; in data set [12], 48 nM. The time of peak concentration (Tmax) in [5] came out at 3.5 h. Moreover, the Vd in data set [6] is 2.3 L/kg. For the same compound, the clearance in [7] was 15 mL/min/kg. For the same compound, the AUC with Rattus norvegicus [8] amounted to 2.391 µM·h; in the data set with Rattus norvegicus [9], 2.435 µM·h. The bioavailability in data set [11] was found to be 102%. The same compound had a half-life in data set [13] of 3.2 h.
On to `COc1ccc(-c2cccc3nc(Nc4cc(OC)c(OC)c(OC)c4)oc23)cc1`, for which the values for the IC50 in [4], in data set [10] and in data set [12] were greater than 10000 nM, greater than 10000 nM and 8900 nM, respectively.
Regarding `COc1cc(Nc2nc3cccc(-c4ccc5ncccc5c4)c3o2)cc(OC)c1OC`, it took 500 nM to inhibit growth in data set [1] by half (GI50). Further, the IC50 is 8 nM in data set [3], 1400 nM in data set [4], 670 nM in data set [10] and 210 nM in [12].
Take `COc1cc(Nc2nc3cccc(-c4ccc(C(=O)N5CCOCC5)c(F)c4)c3o2)cc(OC)c1OC`: the GI50 in data set [1] is 150 nM. The IC50 in data set [3] was less than 3 nM; in data set [4], 63 nM; in [12] it was 22 nM.
On to `Cc1cc(Nc2nc3cccc(-c4ccc(C(=O)N5CCOCC5)cc4)c3o2)ccc1C(=O)N(C)C`, for which, in data set [1], the GI50 amounted to 490 nM. Further, the IC50 in [3] amounted to 8 nM; in data set [12] it was 130 nM.
On to `COc1cc(Nc2nc3cccc(-c4cccc(NS(C)(=O)=O)c4)c3o2)cc(OC)c1OC`, for which the 50% inhibitory concentration (IC50) in [3] was determined as 150 nM; in data set [4] it was 3600 nM; in [10] it was 2000 nM; in data set [12], 680 nM.
With `Cc1cc(Nc2nc3cccc(-c4cc(F)c(CN5CCOCC5)c(F)c4)c3o2)ccc1C(=O)N(C)C`, the GI50 in data set [1] was determined as 200 nM. Besides, the IC50 is 5 nM in data set [3], 200 nM in data set [4], 160 nM in data set [10] and 140 nM in data set [12].
In turn, `COc1cc(Nc2nc3cccc(-c4ccc(C(=O)N5CCOCC5)cc4)c3o2)cc(OC)c1OC` gave a 50% growth inhibitory concentration (GI50) in [1] of 160 nM. Further, the IC50 stood at 8 nM in [3], 110 nM in [4], 400 nM in data set [10] and 27.5 nM in data set [12].
Turning to `COc1cc(Nc2nc3cccc(-c4ccccc4)c3o2)cc(OC)c1OC`, the IC50 was 3400 nM in [4], greater than 10000 nM in data set [10] and 710 nM in data set [12].
Regarding `COc1cc(Nc2nc3cccc(-c4ccc(CN5CCOCC5)cc4)c3o2)cc(OC)c1OC`, the GI50 in [1] amounted to 420 nM. Also, the IC50 amounted to 310 nM in [4], 300 nM in data set [10] and 82 nM in [12].
`COc1cc(Nc2nc3cccc(-c4ccc(NS(C)(=O)=O)cc4)c3o2)cc(OC)c1OC`: the GI50 in data set [1] amounted to 130 nM. Further, the 50% inhibitory concentration (IC50) was 5 nM in data set [3], 150 nM in data set [4], 130 nM in [10] and 47 nM in data set [12].
`Cc1cc(Nc2nc3cccc(-c4cc(F)c(CN5CCOCC5)c(F)c4)c3o2)ccc1C(=O)NCCCN(C)C`: the GI50 in data set [1] came out at 410 nM. Also, the IC50 amounted to 5 nM in [3], 97 nM in data set [4], 220 nM in data set [10] and 35 nM in data set [12].
In the case of `COc1cc(Nc2nc3cccc(-c4cccc(Cl)c4)c3o2)cc(OC)c1OC`, the IC50 in [3] is 440 nM; in [4], greater than 10000 nM; in [10] it was greater than 10000 nM; in [12], 5300 nM.
For `COc1cc(Nc2nc3cccc(-c4ccccn4)c3o2)cc(OC)c1OC`, the IC50 in data set [3] was 110 nM; in [4] it was 640 nM; in data set [10] it was 450 nM; in data set [12] it was 760 nM.
The compound `Cc1cc(-c2cccc3nc(Nc4ccc(N5CCN(C)CC5)cc4)oc23)ccc1C(=O)N1CCOCC1` had a 50% growth inhibitory concentration (GI50) in data set [1] of 200 nM. Also, the half-maximal inhibitory concentration (IC50) is 8 nM in [3], 300 nM in [4], 170 nM in data set [10] and 67 nM in [12].
For the compound `CN(C)C(=O)c1ccc(Nc2nc3cccc(-c4ccc(C(=O)N5CCOCC5)cc4)c3o2)cc1`, the concentration for half-maximal inhibition (IC50) came to 39 nM in data set [3], 730 nM in data set [4], 620 nM in [10] and 180 nM in [12].
